Measurements as given in PubChem BioAssay (NCI).
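Step 1: Grow cells in 96-well plates. Step 2: Expose to compound for 48 hours at 5 concentrations. Step 3: Interpolate endpoints linearly; if unreached, use highest concentration. GI50 is the concentration that inhibits growth by half. TGI marks complete inhibition of growth.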

Experiments:
Test in all cases: NCI anticancer screen, dose series, 48 h
SK-MEL-2 melanoma = system: SK-MEL-2 melanoma
A549 NSCLC = system: A549 NSCLC
CAKI-1 renal = system: CAKI-1 renal
SN12C renal = system: SN12C renal
HCC-2998 colon = system: HCC-2998 colon
UACC-257 melanoma = system: UACC-257 melanoma
HT29 colon = system: HT29 colon
OVCAR-3 ovarian = system: OVCAR-3 ovarian
SK-OV-3 ovarian = system: SK-OV-3 ovarian
NCI-H460 lung = system: NCI-H460 lung

| Compound | TGI (SK-MEL-2 melanoma) [µM] | TGI (A549 NSCLC) [µM] | TGI (CAKI-1 renal) [µM] | TGI (SN12C renal) [µM] | TGI (HCC-2998 colon) [µM] | TGI (UACC-257 melanoma) [µM] | TGI (HT29 colon) [µM] | TGI (OVCAR-3 ovarian) [µM] | TGI (SK-OV-3 ovarian) [µM] | TGI (NCI-H460 lung) [µM] | GI50 (SK-MEL-2 melanoma) [nM] | GI50 (A549 NSCLC) [µM] | GI50 (CAKI-1 renal) [nM] | GI50 (SN12C renal) [µM] | GI50 (HCC-2998 colon) [µM] | GI50 (UACC-257 melanoma) [nM] | GI50 (HT29 colon) [µM] | GI50 (OVCAR-3 ovarian) [µM] | GI50 (SK-OV-3 ovarian) [nM] | GI50 (NCI-H460 lung) [nM] |
| --- | --- | --- | --- | --- | --- | --- | --- | --- | --- | --- | --- | --- | --- | --- | --- | --- | --- | --- | --- | --- |
| CC(C)C1=C2CCC3(C)C(CCC4C5C6OCC5(CCC6(C)C)CCC43C)C2(C)CC1 (stereo not given) | 81.7 | 43.8 | 38.3 | 29.9 | 33.7 | 36.1 | 37 | 51 | > 100 | 31.8 | – | – | – | – | – | – | – | – | – | – |
| O=c1oc2ccc(Br)cc2c(=O)n1-c1ccc(F)cc1F | 6.13 | > 100 | 6.1 | 8.61 | 18.4 | 6.67 | 27.8 | 11.4 | 3.38 | 25.6 | 2120 | 3.17 | 1720 | 2 | 3.54 | 1780 | 3.45 | 2.41 | 398 | 2790 |
| [F][Sn]([F])([c]1ccccc1)[c]1ccccc1 | 3.43 | 6.45 | 3.22 | 3.18 | 3.04 | 3.2 | 3.85 | 3 | 7.49 | 4.97 | 1910 | 2.33 | 1320 | 1.68 | 1.63 | 1560 | 1.78 | 1.59 | 2310 | 2270 |
| CCCCCCCCCCN1CCC(N2CCCCC2)CC1 | 6.29 | 12.1 | 3.94 | 19.3 | 5.9 | 3.24 | 4.33 | 16.6 | 8.31 | 8.03 | 2430 | 3.74 | 1660 | 4.81 | 2.21 | 1760 | 0.606 | 4.64 | 2770 | 2990 |
| Cc1cccc(C(C)C)c1NC(=O)C(=O)C(C(=O)c1ccccc1F)C1OC(=O)c2ccccc21 (stereo not given) | 30.1 | > 100 | 70.5 | 46.8 | 26.6 | 29.4 | 71.7 | 38 | 64.9 | 83.9 | – | – | – | – | – | – | – | – | – | – |
| Nc1ccccc1SC1CC(=O)N(c2ccc(Cl)c(Cl)c2)C1=O (stereo not given) | > 100 | > 100 | > 100 | > 100 | > 100 | > 100 | > 100 | 44 | 54 | > 100 | 26900 | 19.5 | 21700 | 28.5 | 59.6 | 31800 | 42.1 | 11.6 | 17600 | 32000 |
| Cc1ccc(Nc2nnc(-c3ccc4c(c3)OCO4)o2)c(C)c1 | > 100 | > 100 | > 100 | > 100 | > 100 | > 100 | > 100 | > 100 | > 100 | > 100 | – | – | – | – | – | – | – | – | – | – |
| Cc1ccc(S(=O)(=O)NC(=O)NC2=NC(C)(C)N(c3ccc(Cl)c(Cl)c3)C(N)=N2)cc1 | > 100 | > 100 | > 100 | > 100 | > 100 | > 100 | > 100 | > 100 | > 100 | > 100 | – | – | – | – | – | – | – | – | – | – |
| CC1=C(C(=O)Nc2ccccc2)C(c2ccc(C3C(C(=O)Nc4ccccc4)=C(C)NC(C)=C3C(=O)Nc3ccccc3)cc2)C(C(=O)Nc2ccccc2)=C(C)N1 | 5.06 | 21.8 | 14.4 | 4.71 | 5.74 | 5.06 | 3.77 | 14.5 | 26.2 | 8.29 | – | – | – | – | – | – | – | – | – | – |
| CC1=C(c2cc(C(=O)Nc3ccc(Cl)cc3)nc(=S)[nH]2)Sc2ccccc2N1 | > 100 | > 100 | > 100 | > 100 | > 100 | > 100 | > 100 | > 100 | > 100 | > 100 | – | – | – | – | – | – | – | – | – | – |
| N.N.NCCCCCCCCCN.O=C([O-])CC(=O)[O-].O=C([O-])CC(=O)[O-].[Pt+4].[Pt+4] | > 100 | > 100 | 91.1 | > 100 | > 100 | > 100 | > 100 | > 100 | > 100 | > 100 | > 100000 | > 100 | 22300 | 67.5 | > 100 | > 100000 | > 100 | > 100 | > 100000 | 25800 |
| CCOc1ccccc1NC(=O)C(=O)Cc1nc2ccccc2s1 | > 100 | > 100 | > 100 | > 100 | > 100 | > 100 | > 100 | > 100 | > 100 | > 100 | – | – | – | – | – | – | – | – | – | – |
| O=C1C(=O)N(c2cc(Cl)ccc2Cl)C(=O)C(=O)C1c1nc2ccccc2o1 | > 100 | > 100 | > 100 | > 100 | > 100 | > 100 | > 100 | > 100 | > 100 | > 100 | – | – | – | – | – | – | – | – | – | – |
| Cc1nn(C(=O)c2ccc(Cl)cc2)c2c1C(c1ccc(O)cc1)SC(N)=N2 (stereo not given) | > 10 | > 10 | > 10 | > 10 | > 10 | > 10 | > 10 | > 10 | > 10 | > 10 | – | – | – | – | – | – | – | – | – | – |
| CC(C)(C)OC(=O)N1N=NC2C1C1CC(OCc3ccccc3)(OCc3ccccc3)C2O1 (stereo not given) | > 100 | > 100 | > 100 | > 100 | > 100 | 63.7 | > 100 | > 100 | > 100 | > 100 | – | – | – | – | – | – | – | – | – | – |
| COCOc1ccc(C2(O)Oc3cc(OCOC)ccc3C2C)c(O)c1 (stereo not given) | 32.7 | 31.9 | 30.4 | 30 | 26.6 | 24.5 | 32.2 | 26.2 | 31.8 | 27.1 | – | – | – | – | – | – | – | – | – | – |
| CC1CN1c1c(C(=O)/C=C/c2ccc(Cl)cc2)c(-c2ccccc2)nn(C)c1=O (stereo not given) | 5.8 | > 10 | > 10 | 8.45 | 4.2 | > 10 | > 10 | 6.79 | 5.76 | 4.12 | – | – | – | – | – | – | – | – | – | – |
